The structures appear in SMILES notation.

Our source for the Kd values is US11970494B2, “6-heteroaryloxy benzimidazoles and azabenzimidazoles as JAK2 inhibitors” (Ajax Therapeutics, Inc., priority 2021, dated 2024).

For the first assay, the target named is T1, JAK2 (JH1 domain-catalytic, Y1007F,Y1008F) kinase (Homo sapiens, UniProt O60674, Y1007F/Y1008F).
T1 construct: made in house; host or cells: transiently transfected HEK293 cells
T1 sequence (O60674 849-1124 Y1007F/Y1008F limits assumed): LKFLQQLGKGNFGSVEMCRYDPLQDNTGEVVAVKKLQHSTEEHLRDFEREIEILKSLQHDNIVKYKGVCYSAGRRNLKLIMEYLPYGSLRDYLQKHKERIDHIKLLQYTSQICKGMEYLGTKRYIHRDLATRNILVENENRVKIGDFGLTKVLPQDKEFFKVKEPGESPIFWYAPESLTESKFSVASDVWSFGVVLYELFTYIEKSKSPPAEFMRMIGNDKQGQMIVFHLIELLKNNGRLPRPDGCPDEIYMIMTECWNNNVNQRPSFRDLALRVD
Briefly: JAK2 Binding Assay (JAK2 JH1 Domain Binding Assay).
Conditions: not given
In the case of `Cn1cc(C(F)(F)F)cc(Nc2nc3ncc(Oc4ccnc(NC(=O)CF)c4)c(Cl)c3n2C)c1=O` [Example I-76, N-(4-((7-chloro-1-methyl-2-((1-methyl-2-oxo-5-(trifluoromethyl)-1,2-dihydropyridin-3-yl)amino)-1H-imidazo[4,5-b]pyridin-6-yl)oxy)pyridin-2-yl)-2-fluoroacetamide], the dissociation constant (Kd) is < 10 nM.

The same assay, now with this note: JAK2 JH1 domain binding, qPCR detection; read-out: JAK2 Kd.
Regarding `Cn1c(Nc2cc3n(n2)CCOC3(C)C)nc2ncc(Oc3ccnc(NC(=O)N4CCCC4)c3)c(C#N)c21` [Example I-45, N-(4-((7-cyano-2-((4,4-dimethyl-6,7-dihydro-4H-pyrazolo[5,1-c][1,4]oxazin-2-yl)amino)-1-methyl-1H-imidazo[4,5-b]pyridin-6-yl)oxy)pyridin-2-yl)pyrrolidine-1-carboxamide], the equilibrium dissociation constant (Kd) is < 10 nM. Same read-out and setting: with `CN(C)C(=O)Nc1cc(Oc2cnc3nc(Nc4cc5n(n4)CCN(C)C5=O)n(C)c3c2Cl)ccn1` [Example I-46, 3-(4-((7-chloro-1-methyl-2-((5-methyl-4-oxo-4,5,6,7-tetrahydropyrazolo[1,5-a]pyrazin-2-yl)amino)-1H-imidazo[4,5-b]pyridin-6-yl)oxy)pyridin-2-yl)-1,1-dimethylurea] the figure was > 5000 nM; with `Cn1c(Nc2cc3n(n2)CCOC3(C)C)nc2ncc(Oc3ccnc(NC(=O)N4CCC4)c3)c(C#N)c21` [Example I-47, N-(4-((7-cyano-2-((4,4-dimethyl-6,7-dihydro-4H-pyrazolo[5,1-c][1,4]oxazin-2-yl)amino)-1-methyl-1H-imidazo[4,5-b]pyridin-6-yl)oxy)pyridin-2-yl)azetidine-1-carboxamide], < 10 nM; with `Cn1c(Nc2cc3n(n2)CCOC3(C)C)nc2ncc(Oc3ccnc(NC(=O)O[C@H]4CCOC4)c3)c(C#N)c21` [Example I-49, (S)-Tetrahydrofuran-3-yl(4-((7-cyano-2-((4,4-dimethyl-6,7-dihydro-4H-pyrazolo[5,1-c][1,4]oxazin-2-yl)amino)-1-methyl-1H-imidazo[4,5-b]pyridin-6-yl)oxy)pyridin-2-yl)carbamate], < 10 nM. On the same count and under the same terms, with `[2H]C([2H])([2H])N(C(=O)Nc1cc(Oc2cnc3nc(Nc4cc(C(F)(F)F)cn(C)c4=O)n(C)c3c2C#N)ccn1)C([2H])([2H])[2H]` [Example I-52, 3-(4-((7-cyano-1-methyl-2-((1-methyl-2-oxo-5-(trifluoromethyl)-1,2-dihydropyridin-3-yl)amino)-1H-imidazo[4,5-b]pyridin-6-yl)oxy)pyridin-2-yl)-1,1-bis(methyl-d3)urea] the figure was < 10 nM.

In the case of `CN1CCn2nc(Nc3nc4ncc(Oc5ccnc(NC(=O)O[C@@H]6CCOC6)c5)c(Cl)c4n3C)cc2C1=O` [Example I-53, (R)-tetrahydrofuran-3-yl(4-((7-chloro-1-methyl-2-((5-methyl-4-oxo-4,5,6,7-tetrahydropyrazolo[1,5-a]pyrazin-2-yl)amino)-1H-imidazo[4,5-b]pyridin-6-yl)oxy)pyridin-2-yl)carbamate], the Kd is > 5000 nM.

With `CN1CCn2nc(Nc3nc4ncc(Oc5ccnc(NC(=O)OC6COC6)c5)c(Cl)c4n3C)cc2C1=O` [Example I-54, oxetan-3-yl(4-((7-chloro-1-methyl-2-((5-methyl-4-oxo-4,5,6,7-tetrahydropyrazolo[1,5-a]pyrazin-2-yl)amino)-1H-imidazo[4,5-b]pyridin-6-yl)oxy)pyridin-2-yl)carbamate], the Kd fell in the range of 1000 to 5000 nM. On the same count and under the same terms, with `CN1CCn2nc(Nc3nc4ncc(Oc5ccnc(NC(=O)O[C@H]6CCOC6)c5)c(Cl)c4n3C)cc2C1=O` [Example I-55, (S)-tetrahydrofuran-3-yl(4-((7-chloro-1-methyl-2-((5-methyl-4-oxo-4,5,6,7-tetrahydropyrazolo[1,5-a]pyrazin-2-yl)amino)-1H-imidazo[4,5-b]pyridin-6-yl)oxy)pyridinyl)carbamate] the figure was 1000 to 5000 nM; with `CNC(=O)Nc1cc(Oc2cnc3nc(Nc4cc5n(n4)CCC54CCC4)n(C)c3c2C#N)ccn1` [Example I-58, 1-(4-((7-cyano-2-((5′,6′-dihydrospiro[cyclobutane-1,4′-pyrrolo[1,2-b]pyrazol]-2′-yl)amino)-1-methyl-1H-imidazo[4,5-b]pyridin-6-yl)oxy)pyridin-2-yl)-3-methylurea], < 10 nM. Still for that read-out and setting: the value for `CO[C@H]1CCN(C(=O)Nc2cc(Oc3cnc4nc(Nc5cc6n(n5)CCC65CCC5)n(C)c4c3C#N)ccn2)C1` [Example I-59, (S)-N-(4-((7-cyano-2-((5′,6′-dihydrospiro[cyclobutane-1,4′-pyrrolo[1,2-b]pyrazol]-2′-yl)amino)-1-methyl-1H-imidazo[4,5-b]pyridin-6-yl)oxy)pyridin-2-yl)-3-methoxypyrrolidine-1-carboxamide] was < 10 nM; that for `COC(=O)Nc1cc(Oc2cnc3nc(Nc4cc5n(n4)CCCC54CC4)n(C)c3c2C#N)ccn1` [Example I-63, methyl (4-((7-cyano-2-((6′,7′-dihydro-5′H-spiro[cyclopropane-1,4′-pyrazolo[1,5-a]pyridin]-2′-yl)amino)-1-methyl-1H-imidazo[4,5-b]pyridin-6-yl)oxy)pyridin-2-yl)carbamate] was < 10 nM. For the compound `CNC(=O)Nc1cc(Oc2cnc3nc(Nc4cc5n(n4)CCCC54CC4)n(C)c3c2C#N)ccn1` [Example I-64, 1-(4-((7-cyano-2-((6′,7′-dihydro-5′H-spiro[cyclopropane-1,4′-pyrazolo[1,5-a]pyridin]-2′-yl)amino)-1-methyl-1H-imidazo[4,5-b]pyridin-6-yl)oxy)pyridin-2-yl)-3-methylurea], the Kd was < 10 nM. The same measure, in the same setting: with `CN(C)C(=O)Nc1cc(Oc2cnc3nc(Nc4cc5n(n4)CCCC54CC4)n(C)c3c2C#N)ccn1` [Example I-65, 3-(4-((7-cyano-2-((6′,7′-dihydro-5′H-spiro[cyclopropane-1,4′-pyrazolo[1,5-a]pyridin]-2′-yl)amino)-1-methyl-1H-imidazo[4,5-b]pyridin-6-yl)oxy)pyridin-2-yl)-1,1-dimethylurea] the figure was < 10 nM. The same measure, in the same setting: the value for `Cn1c(Nc2cc3n(n2)CCC32CCC2)nc2ncc(Oc3ccnc(NC(=O)OC4COC4)c3)c(C#N)c21` [Example I-66, oxetan-3-yl (4-((7-cyano-2-((5′,6′-dihydrospiro[cyclobutane-1,4′-pyrrolo[1,2-b]pyrazol]-2′-yl)amino)-1-methyl-1H-imidazo[4,5-b]pyridin-6-yl)oxy)pyridin-2-yl)carbamate] was < 10 nM. On the same count and under the same terms, with `CN(C)C(=O)Nc1cc(Oc2cnc3nc(Nc4cc5n(n4)CCOCC5(C)C)n(C)c3c2C#N)ccn1` [Example I-67, 3-(4-((7-cyano-2-((4,4-dimethyl-4,5,7,8-tetrahydropyrazolo[1,5-d][1,4]oxazepinyl)amino)-1-methyl-1H-imidazo[4,5-b]pyridin-6-yl)oxy)pyridin-2-yl)-1,1-dimethylurea] the figure was < 10 nM. As to `COC(=O)Nc1cc(Oc2cnc3nc(Nc4cc5n(n4)CCOCC5(C)C)n(C)c3c2C#N)ccn1` [Example I-68, methyl(4-((7-cyano-2-((4,4-dimethyl-4,5,7,8-tetrahydropyrazolo[1,5-d][1,4]oxazepin-2-yl)amino)-1-methyl-1H-imidazo[4,5-b]pyridin-6-yl)oxy)pyridin-2-yl)carbamate], the dissociation constant (Kd) is < 10 nM.

On to `CNC(=O)Nc1cc(Oc2cnc3nc(Nc4cc5n(n4)CCOCC5(C)C)n(C)c3c2C#N)ccn1` [Example I-69, 1-(4-((7-cyano-2-((4,4-dimethyl-4,5,7,8-tetrahydropyrazolo[1,5-d][1,4]oxazepin-2-yl)amino)-1-methyl-1H-imidazo[4,5-b]pyridin-6-yl)oxy)pyridin-2-yl)-3-methylurea], for which the Kd is < 10 nM.

As to `CN(C)C(=O)Nc1cc(Oc2cnc3nc(Nc4cc5n(n4)CCN5C(C)(C)C)n(C)c3c2C#N)ccn1` [Example I-70, 3-(4-((2-((1-(tert-butyl)-2,3-dihydro-1H-imidazo[1,2-b]pyrazol-6-yl)amino)-7-cyano-1-methyl-1H-imidazo[4,5-b]pyridin-6-yl)oxy)pyridin-2-yl)-1,1-dimethylurea], the Kd was in the range of 10 to 50 nM. Regarding `COC(=O)Nc1cc(Oc2cnc3nc(Nc4cc5n(n4)CCN5C(C)(C)C)n(C)c3c2C#N)ccn1` [Example I-71, methyl(4-((2-((1-(tert-butyl)-2,3-dihydro-1H-imidazo[1,2-b]pyrazol-6-yl)amino)-7-cyano-1-methyl-1H-imidazo[4,5-b]pyridin-6-yl)oxy)pyridin-2-yl)carbamate], the Kd is < 10 nM. Same read-out and setting: the value for `CNC(=O)Nc1cc(Oc2cnc3nc(Nc4cc5n(n4)CCN5C(C)(C)C)n(C)c3c2C#N)ccn1` [Example I-72, 1-(4-((2-((1-(tert-butyl)-2,3-dihydro-1H-imidazo[1,2-b]pyrazol-6-yl)amino)-7-cyano-1-methyl-1H-imidazo[4,5-b]pyridin-6-yl)oxy)pyridin-2-yl)-3-methylurea] was < 10 nM; that for `CN(C)C(=O)Nc1cc(Oc2cnc3nc(Nc4cc5n(n4)CC(C)(C)OC5)n(C)c3c2C#N)ccn1` [Example I-73, 3-(4-((7-cyano-2-((6,6-dimethyl-6,7-dihydro-4H-pyrazolo[5,1-c][1,4]oxazin-2-yl)amino)-1-methyl-1H-imidazo[4,5-b]pyridin-6-yl)oxy)pyridin-2-yl)-1,1-dimethylurea] was 10 to 50 nM; that for `Cn1cc(C(F)(F)F)cc(Nc2nc3ncc(Oc4ccnc(NC(=O)C[C@H]5CCCCO5)c4)c(C#N)c3n2C)c1=O` [Example I-74-b] was < 10 nM.

`CC(=O)Nc1cc(Oc2cnc3nc(Nc4cc(C(F)(F)F)cn(C)c4=O)n(C)c3c2)ccn1` [Example I-77, N-(4-((1-methyl-2-((1-methyl-2-oxo-5-(trifluoromethyl)-1,2-dihydropyridin-3-yl)amino)-1H-imidazo[4,5-b]pyridin-6-yl)oxy)pyridin-2-yl)acetamide]: the Kd is < 10 nM. The same measure, in the same setting: with `COc1c(Oc2ccnc(NC(C)=O)c2)cnc2nc(Nc3cc(C(F)(F)F)cn(CCO)c3=O)n(C)c12` [Example I-80, N-(4-((2-((1-(2-hydroxyethyl)-2-oxo-5-(trifluoromethyl)-1,2-dihydropyridin-3-yl)amino)-7-methoxy-1-methyl-1H-imidazo[4,5-b]pyridin-6-yl)oxy)pyridin-2-yl)acetamide] the figure was < 10 nM; with `CC(=O)Nc1cc(Oc2cnc3nc(Nc4cc(C(F)(F)F)cn(CCO)c4=O)n(C)c3c2C#N)ccn1` [Example I-81], < 10 nM.

What is called Kd is the constant that tells how readily two partners part at equilibrium.
